Columns and labels:
Experiment in all cases: KINOMEscan binding assay
Settings in all cases: read-out: % Ctrl @ 10000 nM
ERK5 = ERK5 (Homo sapiens, UniProt Q13164)
DAPK3 = DAPK3 (Homo sapiens, UniProt O43293)
AMPK-alpha2 = AMPK-alpha2 (Homo sapiens, UniProt P54646)
PRKX = PRKX (Homo sapiens, UniProt P51817)
ERN1 = ERN1 (Homo sapiens, UniProt O75460)
MAP3K15 = molecular target: T1, MAP3K15 (Homo sapiens, UniProt Q6ZN16)
T1 construct: T7 phage fusion (most assays) or DNA label after HEK293 expression; purchased DiscoveRx (KINOMEscan, LeadHunter Discovery services); host or cells: T7 phage in E. coli (BL21-derived) or HEK293

CAMK2A = CAMK2A (Homo sapiens, UniProt Q9UQM7)
ERK3 = ERK3 (Homo sapiens, UniProt Q16659)
PLK3 = PLK3 (Homo sapiens, UniProt Q9H4B4)
TGFBR2 = TGFBR2 (Homo sapiens, UniProt P37173)
MINK = MINK (Homo sapiens, UniProt Q8N4C8)
ERK2 = ERK2 (Homo sapiens, UniProt P28482)
BIKE = BIKE (Homo sapiens, UniProt Q9NSY1)
CTK = CTK (Homo sapiens, UniProt P42679)
Sequence of CTK (P42679 whole entry): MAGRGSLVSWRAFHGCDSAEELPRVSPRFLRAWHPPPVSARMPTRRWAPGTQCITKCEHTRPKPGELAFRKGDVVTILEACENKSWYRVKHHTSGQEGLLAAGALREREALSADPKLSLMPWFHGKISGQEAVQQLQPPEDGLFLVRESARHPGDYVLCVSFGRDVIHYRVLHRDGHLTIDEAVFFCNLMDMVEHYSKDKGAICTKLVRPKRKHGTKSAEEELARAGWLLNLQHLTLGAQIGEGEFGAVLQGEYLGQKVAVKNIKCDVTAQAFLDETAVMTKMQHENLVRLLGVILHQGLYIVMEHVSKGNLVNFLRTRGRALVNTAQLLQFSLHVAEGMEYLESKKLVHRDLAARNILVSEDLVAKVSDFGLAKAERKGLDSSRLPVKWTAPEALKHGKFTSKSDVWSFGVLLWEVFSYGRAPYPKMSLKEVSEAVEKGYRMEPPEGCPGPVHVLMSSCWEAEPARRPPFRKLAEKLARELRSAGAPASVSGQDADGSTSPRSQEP

HUNK = HUNK (Homo sapiens, UniProt P57058)
GAK = GAK (Homo sapiens, UniProt O14976)
MAP3K2 = MAP3K2 (Homo sapiens, UniProt Q9Y2U5)
[1] = molecular target: ABL1 (F317I) non-phosphorylated (Homo sapiens, UniProt P00519, F317I)
PIM1 = PIM1 (Homo sapiens, UniProt P11309)
Sequence of PIM1 (P11309 whole entry): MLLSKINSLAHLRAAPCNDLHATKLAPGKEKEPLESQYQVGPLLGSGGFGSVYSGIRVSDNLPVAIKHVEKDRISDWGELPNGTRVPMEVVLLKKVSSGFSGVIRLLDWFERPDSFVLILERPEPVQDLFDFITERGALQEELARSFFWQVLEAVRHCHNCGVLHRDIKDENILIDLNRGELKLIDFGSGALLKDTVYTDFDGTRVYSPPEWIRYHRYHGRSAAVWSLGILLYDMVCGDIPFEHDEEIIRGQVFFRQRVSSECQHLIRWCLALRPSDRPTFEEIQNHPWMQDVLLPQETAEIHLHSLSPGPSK

STK36 = STK36 (Homo sapiens, UniProt Q9NRP7)
KIT (D816H) = KIT (D816H) (Homo sapiens, UniProt P10721, D816H)
CDK7 = CDK7 (Homo sapiens, UniProt P50613)
Sequence of CDK7 (P50613 whole entry): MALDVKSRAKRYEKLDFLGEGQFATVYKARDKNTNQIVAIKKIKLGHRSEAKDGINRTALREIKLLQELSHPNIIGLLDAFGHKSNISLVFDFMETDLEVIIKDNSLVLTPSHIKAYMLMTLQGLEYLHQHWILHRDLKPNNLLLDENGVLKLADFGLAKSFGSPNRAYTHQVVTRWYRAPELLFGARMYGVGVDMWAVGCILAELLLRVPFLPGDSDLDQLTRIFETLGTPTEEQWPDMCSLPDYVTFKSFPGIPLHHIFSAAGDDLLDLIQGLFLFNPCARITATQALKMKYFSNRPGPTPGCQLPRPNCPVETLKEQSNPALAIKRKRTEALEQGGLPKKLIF

PLK2 = PLK2 (Homo sapiens, UniProt Q9NYY3)
CLK4 = CLK4 (Homo sapiens, UniProt Q9HAZ1)
Sequence of CLK4 (Q9HAZ1 whole entry): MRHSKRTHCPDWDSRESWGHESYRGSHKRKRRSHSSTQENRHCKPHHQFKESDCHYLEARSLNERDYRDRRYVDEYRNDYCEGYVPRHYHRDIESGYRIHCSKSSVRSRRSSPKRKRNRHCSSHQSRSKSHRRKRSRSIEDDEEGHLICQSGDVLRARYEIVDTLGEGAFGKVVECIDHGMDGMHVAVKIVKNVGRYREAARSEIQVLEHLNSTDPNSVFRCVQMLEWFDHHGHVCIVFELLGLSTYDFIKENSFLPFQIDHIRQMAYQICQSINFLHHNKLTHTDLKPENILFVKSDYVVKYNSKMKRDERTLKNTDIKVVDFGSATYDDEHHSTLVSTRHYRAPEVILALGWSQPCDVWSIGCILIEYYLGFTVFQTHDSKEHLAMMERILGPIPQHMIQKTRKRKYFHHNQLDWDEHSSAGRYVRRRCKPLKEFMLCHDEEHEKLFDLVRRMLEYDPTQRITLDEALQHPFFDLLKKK

MAP3K3 = MAP3K3 (Homo sapiens, UniProt Q99759)
PIP5K1A = PIP5K1A (Homo sapiens, UniProt Q99755)
[2] = molecular target: RSK3 Kin.Dom.1-N-terminal (Homo sapiens, UniProt Q15349)
BMPR1A = BMPR1A (Homo sapiens, UniProt P36894)
PDPK1 = PDPK1 (Homo sapiens, UniProt O15530)
MKK7 = MKK7 (Homo sapiens, UniProt O14733)
Sequence of MKK7 (O14733 whole entry): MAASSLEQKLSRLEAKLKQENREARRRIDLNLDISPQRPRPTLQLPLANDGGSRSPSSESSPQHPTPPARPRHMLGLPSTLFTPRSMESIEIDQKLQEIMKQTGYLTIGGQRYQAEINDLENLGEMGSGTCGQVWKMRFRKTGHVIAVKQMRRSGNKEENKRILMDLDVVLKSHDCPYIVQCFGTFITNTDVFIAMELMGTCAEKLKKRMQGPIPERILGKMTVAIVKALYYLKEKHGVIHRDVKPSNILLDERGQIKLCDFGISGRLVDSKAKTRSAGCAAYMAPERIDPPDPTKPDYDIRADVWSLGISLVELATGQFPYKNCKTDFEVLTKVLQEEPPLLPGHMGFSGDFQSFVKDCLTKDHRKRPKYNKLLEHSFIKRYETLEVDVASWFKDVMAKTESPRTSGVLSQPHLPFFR

CDC2L1 = CDC2L1 (Homo sapiens, UniProt P21127)
RAF1 = RAF1 (Homo sapiens, UniProt P04049)
RIPK5 = RIPK5 (Homo sapiens, UniProt Q6XUX3)
DDR2 = DDR2 (Homo sapiens, UniProt Q16832)
BMPR2 = BMPR2 (Homo sapiens, UniProt Q13873)
LIMK2 = LIMK2 (Homo sapiens, UniProt P53671)
Sequence of LIMK2 (P53671 whole entry): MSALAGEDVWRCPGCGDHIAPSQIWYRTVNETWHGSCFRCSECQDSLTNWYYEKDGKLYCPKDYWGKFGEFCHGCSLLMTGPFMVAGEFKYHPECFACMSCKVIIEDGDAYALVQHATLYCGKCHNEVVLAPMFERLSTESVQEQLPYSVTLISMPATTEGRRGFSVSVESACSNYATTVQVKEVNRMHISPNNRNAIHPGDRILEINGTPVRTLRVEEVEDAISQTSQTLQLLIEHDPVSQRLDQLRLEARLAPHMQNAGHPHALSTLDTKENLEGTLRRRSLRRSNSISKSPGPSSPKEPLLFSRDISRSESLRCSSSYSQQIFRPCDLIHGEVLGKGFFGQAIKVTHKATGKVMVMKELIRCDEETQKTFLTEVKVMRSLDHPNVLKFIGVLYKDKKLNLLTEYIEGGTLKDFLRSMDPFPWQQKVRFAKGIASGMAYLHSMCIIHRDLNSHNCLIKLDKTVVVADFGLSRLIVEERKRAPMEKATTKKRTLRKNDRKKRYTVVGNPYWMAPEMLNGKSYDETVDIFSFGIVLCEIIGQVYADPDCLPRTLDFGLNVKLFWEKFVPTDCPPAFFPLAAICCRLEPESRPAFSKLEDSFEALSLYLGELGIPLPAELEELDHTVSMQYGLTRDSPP

CSK = CSK (Homo sapiens, UniProt P41240)
Sequence of CSK (P41240 whole entry): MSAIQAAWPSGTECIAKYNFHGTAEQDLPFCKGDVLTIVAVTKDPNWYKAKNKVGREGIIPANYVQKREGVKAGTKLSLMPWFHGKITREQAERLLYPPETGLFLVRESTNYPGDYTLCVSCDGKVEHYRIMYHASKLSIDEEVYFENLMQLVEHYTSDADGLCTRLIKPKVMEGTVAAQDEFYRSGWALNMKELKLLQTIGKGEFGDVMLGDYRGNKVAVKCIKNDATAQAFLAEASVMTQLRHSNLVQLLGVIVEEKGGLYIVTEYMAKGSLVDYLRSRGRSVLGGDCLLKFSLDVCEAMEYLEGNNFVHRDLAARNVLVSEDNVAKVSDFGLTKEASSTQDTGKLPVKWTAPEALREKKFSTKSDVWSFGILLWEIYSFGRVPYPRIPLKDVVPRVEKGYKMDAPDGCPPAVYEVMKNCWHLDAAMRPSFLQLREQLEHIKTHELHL

FGFR3 = FGFR3 (Homo sapiens, UniProt P22607)
PCTK2 = PCTK2 (Homo sapiens, UniProt Q00537)
Sequence of PCTK2 (Q00537 whole entry): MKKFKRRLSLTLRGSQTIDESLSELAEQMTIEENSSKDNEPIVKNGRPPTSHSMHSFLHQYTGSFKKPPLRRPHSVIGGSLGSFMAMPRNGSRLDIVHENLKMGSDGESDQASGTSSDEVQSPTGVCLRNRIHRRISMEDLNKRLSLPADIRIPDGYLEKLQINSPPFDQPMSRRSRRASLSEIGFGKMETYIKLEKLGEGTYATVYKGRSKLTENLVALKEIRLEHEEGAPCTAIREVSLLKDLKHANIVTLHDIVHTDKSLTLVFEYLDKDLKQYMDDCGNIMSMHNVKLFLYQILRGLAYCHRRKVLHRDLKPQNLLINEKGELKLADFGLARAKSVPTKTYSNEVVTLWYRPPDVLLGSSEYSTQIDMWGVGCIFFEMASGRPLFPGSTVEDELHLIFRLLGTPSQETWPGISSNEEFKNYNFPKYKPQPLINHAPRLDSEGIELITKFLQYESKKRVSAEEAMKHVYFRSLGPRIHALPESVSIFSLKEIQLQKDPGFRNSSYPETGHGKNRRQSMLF

FGR = FGR (Homo sapiens, UniProt P09769)
OSR1 = OSR1 (Homo sapiens, UniProt O95747)
CIT = CIT (Homo sapiens, UniProt O14578)

Sequence of PRKX (P51817 whole entry): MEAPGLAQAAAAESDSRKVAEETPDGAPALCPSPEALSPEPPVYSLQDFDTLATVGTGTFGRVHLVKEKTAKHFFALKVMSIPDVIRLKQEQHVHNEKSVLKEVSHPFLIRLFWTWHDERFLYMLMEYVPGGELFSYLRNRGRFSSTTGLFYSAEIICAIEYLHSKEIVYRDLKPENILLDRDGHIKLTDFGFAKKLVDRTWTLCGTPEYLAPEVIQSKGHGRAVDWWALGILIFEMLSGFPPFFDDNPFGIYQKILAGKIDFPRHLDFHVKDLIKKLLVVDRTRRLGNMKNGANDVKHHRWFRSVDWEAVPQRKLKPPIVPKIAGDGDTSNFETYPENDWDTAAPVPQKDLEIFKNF
Sequence of ERN1 (O75460 19-977): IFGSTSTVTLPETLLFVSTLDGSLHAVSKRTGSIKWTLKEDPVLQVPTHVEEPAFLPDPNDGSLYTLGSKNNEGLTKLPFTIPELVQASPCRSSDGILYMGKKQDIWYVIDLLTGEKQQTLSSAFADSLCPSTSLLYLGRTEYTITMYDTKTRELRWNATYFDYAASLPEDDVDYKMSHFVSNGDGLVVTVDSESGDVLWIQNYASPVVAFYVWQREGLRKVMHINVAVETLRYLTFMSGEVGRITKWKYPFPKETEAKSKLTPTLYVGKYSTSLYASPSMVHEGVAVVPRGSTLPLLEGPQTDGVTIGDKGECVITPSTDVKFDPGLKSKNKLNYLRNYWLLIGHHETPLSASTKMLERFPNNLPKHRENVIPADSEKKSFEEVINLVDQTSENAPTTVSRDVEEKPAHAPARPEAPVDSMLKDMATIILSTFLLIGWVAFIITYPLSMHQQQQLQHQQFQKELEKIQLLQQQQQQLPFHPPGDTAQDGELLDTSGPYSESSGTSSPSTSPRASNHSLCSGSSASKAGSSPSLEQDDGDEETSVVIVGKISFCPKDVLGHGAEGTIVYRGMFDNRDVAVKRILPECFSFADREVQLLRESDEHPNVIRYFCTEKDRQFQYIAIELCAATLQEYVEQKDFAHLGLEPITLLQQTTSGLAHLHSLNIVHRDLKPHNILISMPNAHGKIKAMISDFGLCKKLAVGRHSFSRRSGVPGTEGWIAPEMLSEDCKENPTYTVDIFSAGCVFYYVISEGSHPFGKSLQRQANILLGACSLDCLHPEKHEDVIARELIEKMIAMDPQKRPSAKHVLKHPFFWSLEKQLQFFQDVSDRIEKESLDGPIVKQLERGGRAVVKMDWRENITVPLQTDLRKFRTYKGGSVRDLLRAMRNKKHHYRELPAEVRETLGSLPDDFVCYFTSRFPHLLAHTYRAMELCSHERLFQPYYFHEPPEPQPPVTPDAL

## Nc1ncc(-c2nc3ccccc3o2)c(-c2ccncc2)n1 [Comparative Compound 324, 5-(1,3-benzoxazol-2-yl)-4-(pyridine-4-yl)pyrimidin-2-amine]
ERK5
  remaining binding at 10 µM: 93%
DAPK3
  remaining binding at 10 µM: 100%
AMPK-alpha2
  remaining binding at 10 µM: 100%
PRKX
  remaining binding at 10 µM: 100%
ERN1
  remaining binding at 10 µM: 88%
MAP3K15
  remaining binding at 10 µM: 100%
CAMK2A
  remaining binding at 10 µM: 99%
ERK3
  remaining binding at 10 µM: 100%
PLK3
  remaining binding at 10 µM: 99%
TGFBR2
  remaining binding at 10 µM: 100%
MINK
  remaining binding at 10 µM: 56%
ERK2
  remaining binding at 10 µM: 99%
BIKE
  remaining binding at 10 µM: 100%
CTK
  remaining binding at 10 µM: 100%
HUNK
  remaining binding at 10 µM: 96%
GAK
  remaining binding at 10 µM: 87%
MAP3K2
  remaining binding at 10 µM: 87%
[1]
  remaining binding at 10 µM: 90%
PIM1
  remaining binding at 10 µM: 98%
STK36
  remaining binding at 10 µM: 96%
KIT (D816H)
  remaining binding at 10 µM: 86%
CDK7
  remaining binding at 10 µM: 70%
PLK2
  remaining binding at 10 µM: 92%
CLK4
  remaining binding at 10 µM: 83%
MAP3K3
  remaining binding at 10 µM: 76%
PIP5K1A
  remaining binding at 10 µM: 96%
[2]
  remaining binding at 10 µM: 100%
BMPR1A
  remaining binding at 10 µM: 100%
PDPK1
  remaining binding at 10 µM: 100%
MKK7
  remaining binding at 10 µM: 100%
CDC2L1
  remaining binding at 10 µM: 91%
RAF1
  remaining binding at 10 µM: 100%
RIPK5
  remaining binding at 10 µM: 96%
DDR2
  remaining binding at 10 µM: 100%
BMPR2
  remaining binding at 10 µM: 100%
LIMK2
  remaining binding at 10 µM: 100%
CSK
  remaining binding at 10 µM: 100%
FGFR3
  remaining binding at 10 µM: 95%
PCTK2
  remaining binding at 10 µM: 99%
FGR
  remaining binding at 10 µM: 94%
OSR1
  remaining binding at 10 µM: 100%
CIT
  remaining binding at 10 µM: 73%

## CNc1c(C(N)=O)c2ccccn2c1C(=O)c1ccc(F)cc1 [Compound A, 2-methyl-amino-3-[(4-fluorophenyl)carbonyl]indolizine-1-carboxamide]
ERK5
  remaining binding at 10 µM: 78%
DAPK3
  remaining binding at 10 µM: 86%
AMPK-alpha2
  remaining binding at 10 µM: 99%
PRKX
  remaining binding at 10 µM: 100%
ERN1
  remaining binding at 10 µM: 84%
MAP3K15
  remaining binding at 10 µM: 94%
CAMK2A
  remaining binding at 10 µM: 70%
ERK3
  remaining binding at 10 µM: 88%
PLK3
  remaining binding at 10 µM: 85%
TGFBR2
  remaining binding at 10 µM: 100%
MINK
  remaining binding at 10 µM: 57%
ERK2
  remaining binding at 10 µM: 78%
BIKE
  remaining binding at 10 µM: 85%
CTK
  remaining binding at 10 µM: 100%
HUNK
  remaining binding at 10 µM: 79%
GAK
  remaining binding at 10 µM: 10%
MAP3K2
  remaining binding at 10 µM: 73%
[1]
  remaining binding at 10 µM: 85%
PIM1
  remaining binding at 10 µM: 92%
STK36
  remaining binding at 10 µM: 69%
KIT (D816H)
  remaining binding at 10 µM: 86%
CDK7
  remaining binding at 10 µM: 56%
PLK2
  remaining binding at 10 µM: 71%
CLK4
  remaining binding at 10 µM: 76%
MAP3K3
  remaining binding at 10 µM: 48%
PIP5K1A
  remaining binding at 10 µM: 100%
[2]
  remaining binding at 10 µM: 83%
BMPR1A
  remaining binding at 10 µM: 100%
PDPK1
  remaining binding at 10 µM: 92%
MKK7
  remaining binding at 10 µM: 100%
CDC2L1
  remaining binding at 10 µM: 85%
RAF1
  remaining binding at 10 µM: 95%
RIPK5
  remaining binding at 10 µM: 79%
DDR2
  remaining binding at 10 µM: 65%
BMPR2
  remaining binding at 10 µM: 88%
LIMK2
  remaining binding at 10 µM: 100%
CSK
  remaining binding at 10 µM: 91%
FGFR3
  remaining binding at 10 µM: 90%
PCTK2
  remaining binding at 10 µM: 83%
FGR
  remaining binding at 10 µM: 66%
OSR1
  remaining binding at 10 µM: 99%
CIT
  remaining binding at 10 µM: 58%

Reference: patent publication US10815230B2, “Casein kinase 1 delta inhibitor” (ELECTROPHORETICS LIMITED, priority 2015, dated 2020)
